Here are results for five compounds from patent US4448788A, “11-Deoxoglycyrrhetinic acid hydrogen maleate, process for its production, and its use as a medicine” (priority 1981, dated 1984).

Where a name gives a salt, the structure may show the parent alone. Read-outs that look alike come from different tables or passages of the source. A value given as a limit tells only on which side of the number the result lay.

The test system of data set [1] is aldosterone (DCA)-like activity. Conditions: cited from earlier work.
Data set [2] relates to Acetic acid-induced ulcer. Kind of data set: Acetic acid-induced ulcer. It counts as in vivo, male SD-strain rats. Conditions: for Percent inhibition / Ulcer index (mean ± standard deviation): once a day for 10 days; for significance of inhibition: rat, in vivo. How it is done:
In the following test examples, male SD-strain rats (body weight 200 to 250 g) were used as experimental animals, and a sodium salt of the compound of formula (I) dissolved in distilled water was used as the compound of this invention. Acetic acid-induced ulcer: Rats, 5 or 10 per group, were used. After they were anesthetized with pentobarbital sodium, the abdomen was incised, and 0.05 ml of 10% acetic acid was injected into the mucous membrane from the serous layer at the boundary portion in the anterior wall between the body of the stomach and the pylorus part. The abdomen was then sutured. Each of the test drugs shown in Table 2 was intraperitoneally or orally administered once a day for 10 consecutive days beginning with the second day after the above operation. On the 15th day after the operation, the stomach was excised and 12 ml of 1% formalin was injected into it. Then, the stomach was dipped in 1% formalin for 10 minutes, and cut open along the greater curvature. The area of an ulcer generated was measured, and the ulcer index was calculated on the basis of the following standard. |0 0 |1-8 1 | 9-24 2 |25-63 3 | 64-120 4 |121-168 5 |>168 6 The tissue respiration activator used was a calf's blood extract preparation administered at a rate of 0.5 ml per 100 g of body weight (this applies to all tissue respiration activators appearing hereinafter).

The next data set concerns Stress ulcer. Put plainly: Stress ulcer (water immersion). The class given is in vivo, male SD-strain rats. How it is done:
(§1) In the following test examples, male SD-strain rats (body weight 200 to 250 g) were used as experimental animals, and a sodium salt of the compound of formula (I) dissolved in distilled water was used as the compound of this invention.
(§2) The tissue respiration activator used was a calf's blood extract preparation administered at a rate of 0.5 ml per 100 g of body weight (this applies to all tissue respiration activators appearing hereinafter).
Rats, 5 per group, were used. They were put in wire gauze stress cages (made by Natsume Seisakusho) in an upstanding position. The cages were put in a water bath kept constantly at 23° C., and the rats were immersed to a level of the sternal projection. Each of the drugs shown in Table 3 was administered to the rats intraperitoneally or orally 15 minutes before water immersion. Seven hours after the administration, the rats were knocked out to death. The stomach was excised, and the length of a stress ulcer (erosion) was measured.

Data set [3] deals with Indomethacin-induced ulcer. Put plainly: Indomethacin-induced ulcer. It counts as in vivo, male SD-strain rats. How it is done:
as §1, §2
Indomethacin-induced ulcer:
Rats, 5 per group, were used. They were caused to fast for 24 hours while giving them only water. Then, indomethacin was subcutaneously injected to the rats in a dose of 30 mg/kg. Eight hours later, the rats were killed, and the stomach was excised and treated in the same way as in Test Example 3. The length of the erosion generated was measured. Each of the test drugs shown in Table 4 was administered to the rats intraperitoneally or orally 10 minutes before the administration of iodomethacin.

Data set [4] deals with Shay's ulcer (ulcer induced by ligation of the pylorus). Put plainly: Pylorus ligating method (Shay's ulcer). The class given is in vivo, male SD-strain rats. Also noted: Ulcer index (mean ± standard deviation): scale not given here. Conditions: for minimal effective dose: Rattus norvegicus, read-out: positively effective dose. How it is done: as §1
Pylorus ligating method (Shay's ulcer):
Rats, 10 per group, were used, and allowed to fast for 48 hours in separate cages while giving them only water. Pentobarbital sodium was injected intraperitoneally to the rats in a dose of 5 mg per rat. Under anesthesia, the abdomen of each rat was incised, and the portion leading from the pylorus to the duodenum was ligated. Then, the abdomen was sutered. The rats were then left for 19 hours without giving them food and water. Then, under ether anesthesia, the rats were killed by removing the spinal cord. The stomach was excised, and the amount of the gastric juice was measured. The stomach was then cut open along its greater curvature, and placed on a cork plate. The area of an ulcer generated at the anterior stomach was measured by means of an Olympus stereoscope (magnification 10×), and the ulcer index was calculated on the basis of the following criteria.
The test compound of the invention was injected immediately after the ligation, or orally administered 30 minutes before the ligation. To a control group, physiological saline was given at a rate of 1 ml per 100 g of body weight.

The subject of data set [5] is Delayed-type cellular immunity. Put plainly: Delayed-type cellular immunity activating action (sheep red blood cells, foot pad thickness). It counts as in vivo, mice. Conditions: day 8. How it is done:
Mice, 10 per group, were used. Sheep red blood cells (1.0×10^7) were subcutaneously inoculated in the right foot pad of each mouse. The day of inoculation was taken as day 0, and on the same day, the sodium salt of the compound of formula (I) was administered to the mice intraperitoneally or orally. On day 7, sheep red blood cells (1.0×10^7) were subcutaneously inoculated in the left foot pad of each mouse, and on day 8, the thickness of each foot pad was measured.

Data set [6] can be described thus: Toxicity (LD50, method of Reed and Muench). Conditions: rat, in vivo, rats observed for 7 days. How it is done:
The LD50 value was calculated by the method of Reed and Muench.

The mark [7] stands for this setting: oral, 50 mg/kg, P < 0.05 (cetraxate), P < 0.0001 (compound of the invention).
Where [8] appears, read: oral, 300 mg/kg, P < 0.01 (cetraxate), P < 0.001 (compound of the invention).
Setting [9] is: oral, 300 mg/kg, P < 0.05 (cetraxate), P < 0.001 (compound of the invention).

For `CC1(C)[C@@H](O)CC[C@]2(C)[C@H]3CC=C4[C@@H]5C[C@@](C)(C(=O)O)CC[C@]5(C)CC[C@@]4(C)[C@]3(C)CC[C@@H]12` [11-deoxoglycyrrhetinic acid], the DCA activity result in data set [1] (Baran et al., J. Med. Chem. 1974) is reported as “does not substantially show the DCA activity”.

Consider `CC1(C)[C@@H](OC(=O)CCC(=O)O)CC[C@]2(C)[C@H]3C(=O)C=C4[C@@H]5C[C@@](C)(C(=O)O)CC[C@]5(C)CC[C@@]4(C)[C@]3(C)CC[C@@H]12` [Carbenoxolone sodium, glycyrrhetinic acid hydrogen succinate sodium salt, reference compound], for which, in data set [2] (oral, 300 mg/kg), the Percent inhibition came to 12.6%.

With `NC[C@H]1CC[C@H](C(=O)Oc2ccc(CCC(=O)O)cc2)CC1` [Cetraxate hydrochloride, cetraxate hydrochloride, reference compound], the Percent inhibition in data set [2] (intraperitoneal, 20 mg/kg) is listed as 49.5%; in data set [2] (setting [7]) it was 29.6%; in the data set with Stress ulcer (intraperitoneal, 200 mg/kg), 13.5%; in the data set with Stress ulcer (oral, 300 mg/kg) it was 36.6%; in data set [3] (intraperitoneal, 200 mg/kg), 44.3%; in data set [3] (setting [9]), 43.7%. In addition, the “Ulcer index (mean ± standard deviation)” value in data set [2] (intraperitoneal, 20 mg/kg) stood at 1.60 ± 0.245; in data set [2] (oral, 50 mg/kg) it was 1.90 ± 0.568. The significance of inhibition result in data set [2] is given as “significant inhibitions at P<0.001”. The “Length of the erosion (mean ± standard deviation)” value turned out to be 56.08 ± 12.89 mm with Stress ulcer (intraperitoneal, 200 mg/kg); 48.6 ± 3.90 mm in the data set on Stress ulcer (setting [8]); 38.94 ± 8.22 mm in data set [3] (intraperitoneal, 200 mg/kg); 31.58 ± 7.59 mm in data set [3] (oral, 300 mg/kg).

One may read the LD50 as the dose expected to kill half of the subjects tested. On to `CC1(C)[C@@H](OC(=O)/C=C\C(=O)O)CC[C@]2(C)[C@H]3CC=C4[C@@H]5C[C@@](C)(C(=O)O)CC[C@]5(C)CC[C@@]4(C)[C@]3(C)CC[C@@H]12` [Compound of the invention, sodium salt of 11-deoxoglycyrrhetinic acid hydrogen maleate], for which the minimal effective dose in data set [4] (ip, intraperitoneal) is approximately 10 mg/kg; in data set [4] (oral), approximately 300 mg/kg. The Percent inhibition in data set [4] (intraperitoneal, 5 mg/kg) amounted to 17.1%; in data set [4] (intraperitoneal, 10 mg/kg) it was 65.9%; in data set [4] (intraperitoneal, 20 mg/kg), 70.7%; in data set [4] (intraperitoneal, 50 mg/kg) it was 92.7%; in data set [4] (intravenous, 40 mg/kg) it was 90.4%; in data set [4] (oral, 100 mg/kg) it was 36.0%. Moreover, the Percent inhibition in data set [4] (oral, 300 mg/kg) came out at 80.0%; in data set [4] (oral, 500 mg/kg), 84.0%; in data set [4] (subcutaneous, 70 mg/kg), 84.6%; in data set [2] (intraperitoneal, 2 mg/kg) it was 54.8%; in data set [2] (oral, 10 mg/kg, P < 0.001), 40.7%; in data set [2] (oral, 30 mg/kg, P < 0.001), 48.1%. Moreover, the Percent inhibition in data set [2] (setting [7]) is recorded as 63.0%; in the data set with Stress ulcer (intraperitoneal, 20 mg/kg), 70.3%; in the data set on Stress ulcer (oral, 100 mg/kg) it was 87.5%; in the data set with Stress ulcer (oral, 300 mg/kg) it was 100.0%; in the data set on Stress ulcer (oral, 500 mg/kg), 100.0%; in data set [3] (intraperitoneal, 20 mg/kg), 74.7%. The Percent inhibition is listed as 83.3% in data set [3] (oral, 100 mg/kg, P < 0.001); 87.1% in data set [3] (setting [9]); 90.0% in data set [3] (oral, 500 mg/kg, P < 0.001). In addition, the “Ulcer index (mean ± standard deviation)” value worked out at 3.4 ± 0.84 in data set [4] (intraperitoneal, 5 mg/kg); 1.4 ± 0.51 in data set [4] (intraperitoneal, 10 mg/kg, P < 0.01); 1.2 ± 0.20 in data set [4] (intraperitoneal, 20 mg/kg, P < 0.01); 0.3 ± 0.21 in data set [4] (intraperitoneal, 50 mg/kg, P < 0.001); 0.4 ± 0.19 in data set [4] (intravenous, 40 mg/kg, P < 0.001); 3.2 ± 0.97 in data set [4] (oral, 100 mg/kg). The “Ulcer index (mean ± standard deviation)” value in data set [4] (oral, 300 mg/kg, P < 0.01) amounted to 1.0 ± 1.01; in data set [4] (oral, 500 mg/kg, P < 0.001) it was 0.8 ± 0.49; in data set [4] (subcutaneous, 70 mg/kg, P < 0.001) it was 0.8 ± 0.90; in data set [2] (intraperitoneal, 2 mg/kg, P < 0.001) it was 1.40 ± 0.247; in data set [2] (oral, 10 mg/kg) it was 1.60 ± 0.699; in data set [2] (oral, 30 mg/kg), 1.40 ± 0.699. Besides, the “Ulcer index (mean ± standard deviation)” value in data set [2] (oral, 50 mg/kg) is listed as 1.00 ± 0.817. In addition, the “effect against ulcer induced by ligation of the pylorus” value in data set [4] (rat, in vivo) is given as “effective against ulcer induced by ligation of the pylorus”. The significance of inhibition result in data set [2] is “significant inhibitions at P<0.001”. For the same compound, in data set [2] (versus cetraxate hydrochloride and tissue respiration activator), the “rank of percent inhibition” value is listed as “highest”. Also, the “Length of the erosion (mean ± standard deviation)” value with Stress ulcer (intraperitoneal, 20 mg/kg) stood at 19.25 ± 0.95 mm; in the data set on Stress ulcer (oral, 100 mg/kg, P < 0.001), 9.6 ± 4.80 mm; in the data set with Stress ulcer (setting [8]) it was 0.0 ± 0.00 mm; in the data set on Stress ulcer (oral, 500 mg/kg, P < 0.001) it was 0.0 ± 0.00 mm; in data set [3] (intraperitoneal, 20 mg/kg), 17.69 ± 8.08 mm; in data set [3] (oral, 100 mg/kg), 9.37 ± 3.22 mm. Besides, the “Length of the erosion (mean ± standard deviation)” value in data set [3] (oral, 300 mg/kg) was 7.22 ± 3.06 mm; in data set [3] (oral, 500 mg/kg), 5.63 ± 3.92 mm. Moreover, the “Ratio to the control group” value amounted to 1.18 in data set [5] (5 mm/kg (so in the source), intraperitoneal); 1.49 in data set [5] (15 mm/kg (so in the source), intraperitoneal); 1.40 in data set [5] (100 mm/kg (so in the source), oral). Besides, the LD50 at 168 h was 67.8 mg/kg in data set [6] (ip, intraperitoneal); 98.3 mg/kg in data set [6] (sc, subcutaneous); 54.2 mg/kg in data set [6] (intravenous); more than 6000 mg/kg in data set [6] (oral).

With `CC1(C)[C@@H](O)CC[C@]2(C)[C@H]3C(=O)C=C4[C@@H]5C[C@@](C)(C(=O)O)CC[C@]5(C)CC[C@@]4(C)[C@]3(C)CC[C@@H]12` [glycyrrhetinic acid], the “aldosterone (DCA)-like activity, sodium retention and potassium excretion” value in data set [1] is “have an aldosterone (DCA)-like activity and promote sodium retention and potassium excretion”.
